# Values of other authors as cited in paper PMC9688344, “[^225Ac]Ac-SibuDAB for Targeted Alpha Therapy of Prostate Cancer: Preclinical Evaluation and Comparison with [^225Ac]Ac-PSMA-617” (Cancers, 2022).
# Like-named read-outs stand apart in the source and are kept apart here.
# What was measured:
# [1] = cited from earlier work
# [2] = test system: PSMA-positive PC-3 PIP cells; conditions: 4 h incubation; ref Tschan et al., Eur J Nucl Med Mol Imaging 2022; cited from earlier work
# [3] = test system: PC3-PIP/flu tumor-bearing mice; conditions: ref Benešová et al., Mol Pharm 2018, cited from earlier work
# [4] = patients; cited from earlier work
# [5] = molecular target: T1, PSMA (Homo sapiens, UniProt Q04609); conditions: ref Deberle & Benešová et al., Theranostics 2020; cited from earlier work
# T1 construct: expressed in transfected cells; host or cells: PC-3 PIP prostate cancer cells (transduced to express PSMA), provided by Prof; Dr. Martin Pomper, Johns Hopkins University
# T1 sequence (Q04609 whole entry): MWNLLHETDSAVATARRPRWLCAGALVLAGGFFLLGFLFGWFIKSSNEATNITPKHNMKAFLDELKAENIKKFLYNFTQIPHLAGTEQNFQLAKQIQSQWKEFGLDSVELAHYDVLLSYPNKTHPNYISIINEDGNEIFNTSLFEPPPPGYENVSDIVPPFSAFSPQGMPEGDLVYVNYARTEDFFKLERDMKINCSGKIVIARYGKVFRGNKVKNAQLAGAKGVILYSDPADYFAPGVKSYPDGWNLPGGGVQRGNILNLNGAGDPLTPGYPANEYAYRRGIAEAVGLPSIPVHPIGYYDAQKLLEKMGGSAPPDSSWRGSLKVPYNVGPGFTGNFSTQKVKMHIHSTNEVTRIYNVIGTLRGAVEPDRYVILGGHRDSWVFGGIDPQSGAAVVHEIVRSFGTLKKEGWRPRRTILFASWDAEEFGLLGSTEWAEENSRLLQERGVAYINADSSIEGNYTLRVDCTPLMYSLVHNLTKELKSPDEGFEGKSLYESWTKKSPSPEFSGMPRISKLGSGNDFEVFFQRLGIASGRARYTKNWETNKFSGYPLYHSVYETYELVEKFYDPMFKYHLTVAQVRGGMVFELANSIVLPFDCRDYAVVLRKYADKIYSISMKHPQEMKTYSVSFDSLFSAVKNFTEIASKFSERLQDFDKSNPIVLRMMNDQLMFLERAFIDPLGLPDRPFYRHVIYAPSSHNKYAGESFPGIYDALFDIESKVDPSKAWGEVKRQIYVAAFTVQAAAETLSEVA
structure (smiles),measurement,setting,value
O=C([O-])CN1CCN(CC(=O)[O-])CCN(CC(=O)NCC2CCC(C(=O)NC(Cc3ccc4ccccc4c3)C(=O)NCCCCC(NC(=O)NC(CCC(=O)O)C(=O)O)C(=O)O)CC2)CCN(CC(=O)[O-])CC1.[177Lu+3] (stereo not drawn) [[^177Lu]Lu-PSMA-617],logD value,[1],−4.4 ± 0.2
same,Cell uptake,[2],60 ± 5%
same,Internalized fraction,[2],13 ± 2%
same,"Blood, accumulated activity",[3]; 1 h p.i.,0.50 ± 0.06 % IA/g
same,"Bone, accumulated activity",[3]; 1 h p.i.,0.21 ± 0.04 % IA/g
same,"Heart, accumulated activity",[3]; 1 h p.i.,0.29 ± 0.03 % IA/g
same,"Intestines, accumulated activity",[3]; 1 h p.i.,0.24 ± 0.01 % IA/g
same,"Kidneys, accumulated activity",[3]; 1 h p.i.,9.8 ± 1.4 % IA/g
same,"Liver, accumulated activity",[3]; 1 h p.i.,0.20 ± 0.04 % IA/g
same,"Lung, accumulated activity",[3]; 1 h p.i.,0.57 ± 0.07 % IA/g
same,"Muscle, accumulated activity",[3]; 1 h p.i.,0.25 ± 0.20 % IA/g
same,"PC-3 PIP tumor, accumulated activity",[3]; 1 h p.i.,44 ± 12 % IA/g
same,"PC-3 flu tumor, accumulated activity",[3]; 1 h p.i.,0.28 ± 0.04 % IA/g
same,"Salivary glands, accumulated activity",[3]; 1 h p.i.,0.42 ± 0.30 % IA/g
same,"Spleen, accumulated activity",[3]; 1 h p.i.,0.63 ± 0.27 % IA/g
same,"Stomach, accumulated activity",[3]; 1 h p.i.,0.18 ± 0.02 % IA/g
same,Tumor-to-blood ratio,[3]; 1 h p.i.,88 ± 13
same,Tumor-to-kidney ratio,[3]; 1 h p.i.,4.5 ± 0.7
same,Tumor-to-liver ratio,[3]; 1 h p.i.,213 ± 17
same,"Blood, accumulated activity",[3]; 4 h p.i.,≤ 0.10 % IA/g
same,"Bone, accumulated activity",[3]; 4 h p.i.,≤ 0.10 % IA/g
same,"Heart, accumulated activity",[3]; 4 h p.i.,≤ 0.10 % IA/g
same,"Intestines, accumulated activity",[3]; 4 h p.i.,≤ 0.10 % IA/g
same,"Kidneys, accumulated activity",[3]; 4 h p.i.,3.7 ± 1.1 % IA/g
same,"Liver, accumulated activity",[3]; 4 h p.i.,≤ 0.10 % IA/g
same,"Lung, accumulated activity",[3]; 4 h p.i.,≤ 0.10 % IA/g
same,"Muscle, accumulated activity",[3]; 4 h p.i.,≤ 0.10 % IA/g
same,"PC-3 PIP tumor, accumulated activity",[3]; 4 h p.i.,56 ± 8 % IA/g
same,"PC-3 flu tumor, accumulated activity",[3]; 4 h p.i.,≤ 0.10 % IA/g
same,"Salivary glands, accumulated activity",[3]; 4 h p.i.,≤ 0.10 % IA/g
same,"Spleen, accumulated activity",[3]; 4 h p.i.,0.15 ± 0.04 % IA/g
same,"Stomach, accumulated activity",[3]; 4 h p.i.,≤ 0.10 % IA/g
same,Tumor-to-blood ratio,[3]; 4 h p.i.,2315 ± 108
same,Tumor-to-kidney ratio,[3]; 4 h p.i.,16 ± 2
same,Tumor-to-liver ratio,[3]; 4 h p.i.,598 ± 108
same,"Blood, accumulated activity",[3]; 24 h p.i.,≤ 0.10 % IA/g
same,"Bone, accumulated activity",[3]; 24 h p.i.,≤ 0.10 % IA/g
same,"Heart, accumulated activity",[3]; 24 h p.i.,≤ 0.10 % IA/g
same,"Intestines, accumulated activity",[3]; 24 h p.i.,≤ 0.10 % IA/g
same,"Kidneys, accumulated activity",[3]; 24 h p.i.,0.76 ± 0.15 % IA/g
same,"Liver, accumulated activity",[3]; 24 h p.i.,≤ 0.10 % IA/g
same,"Lung, accumulated activity",[3]; 24 h p.i.,≤ 0.10 % IA/g
same,"Muscle, accumulated activity",[3]; 24 h p.i.,≤ 0.10 % IA/g
same,"PC-3 PIP tumor, accumulated activity",[3]; 24 h p.i.,37 ± 6 % IA/g
same,"PC-3 flu tumor, accumulated activity",[3]; 24 h p.i.,≤ 0.10 % IA/g
same,"Salivary glands, accumulated activity",[3]; 24 h p.i.,≤ 0.10 % IA/g
same,"Spleen, accumulated activity",[3]; 24 h p.i.,≤ 0.10 % IA/g
same,"Stomach, accumulated activity",[3]; 24 h p.i.,≤ 0.10 % IA/g
same,Tumor-to-blood ratio,[3]; 24 h p.i.,2730 ± 195
same,Tumor-to-kidney ratio,[3]; 24 h p.i.,50 ± 4
same,Tumor-to-liver ratio,[3]; 24 h p.i.,528 ± 51
same,"Blood, accumulated activity",[3]; 48 h p.i.,≤ 0.10 % IA/g
same,"Bone, accumulated activity",[3]; 48 h p.i.,≤ 0.10 % IA/g
same,"Heart, accumulated activity",[3]; 48 h p.i.,≤ 0.10 % IA/g
same,"Intestines, accumulated activity",[3]; 48 h p.i.,≤ 0.10 % IA/g
same,"Kidneys, accumulated activity",[3]; 48 h p.i.,0.35 ± 0.05 % IA/g
same,"Liver, accumulated activity",[3]; 48 h p.i.,≤ 0.10 % IA/g
same,"Lung, accumulated activity",[3]; 48 h p.i.,≤ 0.10 % IA/g
same,"Muscle, accumulated activity",[3]; 48 h p.i.,≤ 0.10 % IA/g
same,"PC-3 PIP tumor, accumulated activity",[3]; 48 h p.i.,28 ± 4 % IA/g
same,"PC-3 flu tumor, accumulated activity",[3]; 48 h p.i.,≤ 0.10 % IA/g
same,"Salivary glands, accumulated activity",[3]; 48 h p.i.,≤ 0.10 % IA/g
same,"Spleen, accumulated activity",[3]; 48 h p.i.,≤ 0.10 % IA/g
same,"Stomach, accumulated activity",[3]; 48 h p.i.,≤ 0.10 % IA/g
same,Tumor-to-blood ratio,[3]; 48 h p.i.,3776 ± 585
same,Tumor-to-kidney ratio,[3]; 48 h p.i.,81 ± 11
same,Tumor-to-liver ratio,[3]; 48 h p.i.,710 ± 97
same,salivary gland uptake,[4],1.41 ± 0.53 Gy/GBq
same,Kd,[5],13 nM
